# Assay results: US10138212B2, “Aminoquinazoline compounds as A2A antagonist” (Merck Sharp & Dohme Corp., priority 2015, dated 2018)
# Experiments:
# human A2a receptor = human A2a receptor (Homo sapiens (Human), UniProt P29274); test: A2a competition binding assay using Scintillation Proximity technology
# Procedure: (§1) Binding affinities of compounds of the invention for the human A2a receptor were determined in a competition binding assay using Scintillation Proximity technology. Thus, 1* μg, or preferably 0.25 μg of membranes from HEK293 cells expressing the human A2a receptor were incubated with a compound of the invention at concentrations ranging from 3000 nM to 0.15 nM in a reaction mixture containing also 0.5 nM of a tritiated form of 5-amino-7-[2-phenethyl]-2-(furan-2-yl)-7H-pyrazolo[4,3-e][1,2,4]triazolo[1,5-c]pyrimidine (the tritiated compound) and 25 μg of wheat germ agglutin-coated yttrium silicate SPA beads for one hour at room temperature with agitation. The beads were then allowed to settle to the bottom of the wells for 1 hr, after which the membrane-associated radioactivity was determined by scintillation counting in a TopCount microplate reader. Ki values were determined using the Cheng-Prusoff equation.
# HEK293 cells expressing the human, rat, dog or monkey adenosine 2a receptor (Purchased from Perkin-Elmer # RBHA2AM400UA).
# The Tritiated compound was prepared in-house by MRL Radiochemistry according to published methods.
# Wheat germ agglutinin-coated yttrium silicate SPA beads (GE Healthcare #RPNQ0023). Dilute to 25 mg/ml in assay buffer.
# Assay Buffer was prepared in house: Dulbecco's calcium and magnesium free phosphate buffered saline+10 mM MgCl2
# Adenosine deaminase from calf intestine, 10 mg/2 ml (Roche #10 102 105 001).
# A2a antagonist standard (9-chloro-1-(2-furanyl)-[1,2,4]triazolo1,5-c]quinazolin-5-amine from Tocris Bioscience)
# Make eight 1:3 serial dilutions in 100% DMSO from a 3 mM compound stock
# Transfer 50 nl of compound into a 384-well OptiPlate (Perkin Elmer).
# Typically, final concentrations of compound used in the assay ranged from 3000 nM to 0.152 nM.
# Dilute a solution of the Tritiated compound to 1.25 nM in assay buffer. This is a 2.5× solution. The final concentration in the assay is 0.5 nM. Calculate the concentration by counting two 5 μl aliquots.
# Use *1 ug or preferrably 0.25 ug of membrane/well. Dilute membranes to 9.7 μg/ml in assay buffer. Treat with 20 ug/ml adenosine deaminase (ADA) for 15 minutes at room temperature to degrade endogenous adenosine.
# Use 25 μg/well wheat germ agglutinin-coated yttrium silicate SPA beads.
# Mix ADA-treated membranes and SPA beads together for 30 min prior to assay.
# To the Perkin-Elmer Optiplate-384 containing the compound titration add 20 μl of 2.5× solution of the Tritiated compound and 30 μl of the membrane-bead mixture. Incubate for one hour at room temperature with agitation.
# Include total binding (assay buffer+1% DMSO) and non-specific binding (CGS15943, 1 μM) wells.
# Allow the beads to settle for one hour.
# A curve fitting program (i.e., Prism, Activity Base, Chemcart) is used to determine the EC50. The Ki value is calculated using the Cheng-Prusoff equation. Ki=EC50/(1+(radioligand concentration/Kd))
# Using the foregoing assay method, the Ki results were obtained using the compounds of the invention described in Tables IIIa, IIIb, and IV. Each example compound tested is reported in the following format: Example number: A2a Ki reported in nM. Thus, for example, the compound Ex-1 was determined to have an Ki using the above-described assay and calculations, of 10.0 nM.
# human A1 receptor = human A1 receptor (Homo sapiens (Human), UniProt P30542); test: A1 competition binding assay using Scintillation Proximity technology; selectivity = A1 binding Ki / A2a binding Ki; details: A1 binding Ki divided by A2a binding Ki
# Procedure: as §1, with “A1” for “A2a”, “5” for “1* μg, or preferably 0.25 μg”, “CHO-K1” for “HEK293”, “0.7” for “0.5”, “8-Cyclopentyl-1,3-dipropylxanthine” for “5-amino-7-[2-phenethyl]-2-(furan-2-yl)-7H-pyrazolo[4,3-e][1,2,4]triazolo[1,5-c]pyrimidine”, “in a similar fashion described with A2a binding.” for “using the Cheng-Prusoff equation.”
# • Cells expressing the human, rat, dog or monkey adenosine 1 receptor (Purchased from Perkin-Elmer # ES-010-M400UA • [^3H]DPCPX (purchased from Perkin-Elmer NET-974, 8-cyclopentyl-1,3-dipropylxanthine, [dipropyl-2,3-^3H(N)]. • Wheatgerm agglutinin-coated yttrium silicate SPA beads (Purchased from GE Healthcare #RPNQ0023). Dilute to 25 mg/ml in assay buffer. Store at 4° C. • Assay Buffer—Dulbecco's phosphate buffered saline without calcium and without magnesium+10 mM MgCl2 • Adenosine deaminase from calf intestine, 10 mg/2 ml (Roche #10 102 105 001). • DMSO • DPCPX (A1 antagonist) from Tocris Bioscience Compound Dilution • Dilute compounds to 1 mM in 100% DMSO
# Make serial dilutions as necessary (i.e., 1:10, 1:3) in 100% DMSO.
# Dilute 1:20 into assay buffer (i.e. 3 ul into 57 ul buffer). This is a 5× solution in 5% DMSO.
# • Dilute [^3H]DPCPX to 1.75 nM in assay buffer. This is a 2.5× solution. The final concentration in the assay is 0.7 nM. Calculate the concentration by counting two 5 ul aliquots. Membrane Preparation • Use 5 ug of membrane/well. Dilute membranes to 250 ug/ml in assay buffer. Treat with 20 ug/ml adenosine deaminase (ADA) for 15 minutes at room temperature to degrade endogenous adenosine. Membrane-Bead Mixture • Use 25 ug/well wheatgerm agglutinin-coated yttrium silicate SPA beads • Mix ADA-treated membranes and SPA beads together for 30 min prior to assay. Assay Assembly • Add in order to a Perkin-Elmer Optiplate-384: 10 ul of 5× compound, 20 ul of 2.5× [^3H]DPCPX, 20 ul membrane-bead mixture. Incubate for one hour at room temperature with agitation. • Include total binding (assay buffer+1% DMSO) and non-specific binding (DPCPX, 1 uM) wells. Counting and Calculations
# [1] = 0.25 μg of membranes from HEK293 cells expressing the human A2a receptor
# [2] = * assay run with 1 μg of membranes versus 0.25 μg, HEK293 cells expressing the human A2a receptor
# human A2a receptor, sequence (P29274 whole entry): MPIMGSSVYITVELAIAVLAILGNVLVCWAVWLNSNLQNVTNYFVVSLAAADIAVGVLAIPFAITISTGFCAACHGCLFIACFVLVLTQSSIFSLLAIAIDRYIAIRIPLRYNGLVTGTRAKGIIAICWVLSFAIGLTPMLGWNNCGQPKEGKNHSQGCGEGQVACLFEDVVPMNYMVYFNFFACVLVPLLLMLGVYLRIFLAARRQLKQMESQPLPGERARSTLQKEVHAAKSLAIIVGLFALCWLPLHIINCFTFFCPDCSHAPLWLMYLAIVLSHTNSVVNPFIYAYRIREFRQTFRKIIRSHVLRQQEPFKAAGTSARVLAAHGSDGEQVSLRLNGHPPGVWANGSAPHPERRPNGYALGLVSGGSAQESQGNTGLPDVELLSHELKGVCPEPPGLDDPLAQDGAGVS
# human A1 receptor, sequence (P30542 whole entry): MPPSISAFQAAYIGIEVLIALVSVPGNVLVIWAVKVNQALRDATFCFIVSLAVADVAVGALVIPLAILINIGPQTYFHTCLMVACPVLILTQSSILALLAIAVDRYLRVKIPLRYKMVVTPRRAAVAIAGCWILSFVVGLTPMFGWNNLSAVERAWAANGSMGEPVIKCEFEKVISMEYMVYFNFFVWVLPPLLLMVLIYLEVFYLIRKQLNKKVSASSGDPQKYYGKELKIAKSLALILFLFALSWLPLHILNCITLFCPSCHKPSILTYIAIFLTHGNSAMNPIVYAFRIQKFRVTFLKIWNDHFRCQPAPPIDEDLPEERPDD
Compound,Ki (human A2a receptor; [1]) [nM],A2a selectivity (A2a A1 binding selectivity) (human A1 receptor),Ki (human A2a receptor; [2]) [nM]
"COc1cccc2c(C(=O)N[C@@H](CO)c3ccccc3)nc(N)nc12 [Example 36, 2-amino-N-[(1R)-2-hydroxy-1-phenyl-ethyl]-8-methoxy-quinazoline-4-carboxamide]",2.6,114,–
"COc1cccc2c(C(=O)NCc3cccc(C)n3)nc(N)nc12 [Example 15, 2-amino-8-methoxy-N-[(6-methyl-2-pyridyl)methyl]quinazoline-4-carboxamide]",0.5,319,–
"COc1cccc2c(C(=O)NCc3cccc(C4CCC4)n3)nc(N)nc12 [Example 6, 2-amino-N-[(6-cyclobutyl-2-pyridyl)methyl]-8-methoxy-quinazoline-4-carboxamide]",0.2,102,–
"COc1cccc2c(C(=O)NCc3cccc4ccncc34)nc(N)nc12 [Example 16, 2-amino-N-(8-isoquinolylmethyl)-8-methoxy-quinazoline-4-carboxamide]",0.3,114,–
"COc1cccc2c(C(=O)NCc3ncc(F)cc3F)nc(N)nc12 [Example 29, 2-amino-N-[(3,5-difluoro-2-pyridyl)methyl]-8-methoxy-quinazoline-4-carboxamide]",2.9,118,–
"COc1cccc2c(C(=O)NCc3cccc(COC4CCCC4)n3)nc(N)nc12 [Example 48, 2-amino-N-[[6-(cyclopentoxymethyl)-2-pyridyl]methyl]-8-methoxy-quinazoline-4-carboxamide]",0.5,447,–
"COc1cccc2c(C(=O)NC3CCc4cccnc43)nc(N)nc12 (stereo not shown) [Example 32, 2-amino-N-(6,7-dihydro-5H-cyclopenta[b]pyridin-7-yl)-8-methoxy-quinazoline-4-carboxamide]",1.8,370,–
"COc1cccc2c(C(=O)N[C@@H](CO)c3ccc4ccccc4n3)nc(N)nc12 [Example 37, 2-amino-N-[(1R)-2-hydroxy-1-(2-quinolyl)ethyl]-8-methoxy-quinazoline-4-carboxamide]",8.3,32,–
"COc1cccc2c(C(=O)NCc3cccc(CO[C@H]4CCOC4)n3)nc(N)nc12 [Example 52, 2-amino-8-methoxy-N-[[6-[[(3S)-tetrahydrofuran-3-yl]oxymethyl]-2-pyridyl]methyl]quinazoline-4-carboxamide]",1.1,140,–
"Nc1nc(C(=O)NCc2cccc3cccnc23)c2cccc(Br)c2n1 [Example 96, 2-amino-8-bromo-N-(8-quinolylmethyl)quinazoline-4-carboxamide]",–,12,0.7
"COc1cccc2c(C(=O)NC3(c4ccccn4)CC3)nc(N)nc12 [Example 40, 2-amino-8-methoxy-N-[1-(2-pyridyl)cyclopropyl]quinazoline-4-carboxamide]",929,3,–
"Nc1nc(C(=O)NCc2ccccc2-n2cccn2)c2cccc(F)c2n1 [Example 62, 2-amino-8-fluoro-N-[(2-pyrazol-1-ylphenyl)methyl]quinazoline-4-carboxamide]",0.5,297,–
"[2H]C([2H])(NC(=O)c1nc(N)nc2c(OC)cccc12)c1cccc(N2CCN(c3ccc(OCCOC)cc3)CC2)n1 [Example 60, 2-amino-N-[dideuterio-[6-[4-[4-(2-methoxyethoxy)phenyl]piperazin-1-yl]-2-pyridyl]methyl]-8-methoxy-quinazoline-4-carboxamide]",–,67,4.3
"COc1cccnc1CNC(=O)c1nc(N)nc2c(OC)cccc12 [Example 23, 2-amino-8-methoxy-N-[(3-methoxy-2-pyridyl)methyl]quinazoline-4-carboxamide]",3,110,–
Nc1nc(C(=O)NCc2cccc3c2NCCC3)c2cccc(F)c2n1 [Example 90],3,–,–
"Nc1nc(C(=O)NCc2ccccc2-c2ncccn2)c2cccc(F)c2n1 [Example 64, 2-amino-8-fluoro-N-[(2-pyrimidin-2-ylphenyl)methyl]quinazoline-4-carboxamide]",0.9,235,–
"[2H]C([2H])(NC(=O)c1nc(N)nc2c(OC)cccc12)c1cccc(C([2H])([2H])c2cncc(OCCOC)c2)n1 [Example 107, 2-amino-N-[dideuterio-[6-[dideuterio-[5-(2-methoxyethoxy)-3-pyridyl]methyl]-2-pyridyl]methyl]-8-methoxy-quinazoline-4-carboxamide]",2,95,–
"COc1cccc2c(C(=O)N[C@@H]3CCc4ccccc43)nc(N)nc12 [Example 33, 2-amino-N-[(1R)-indan-1-yl]-8-methoxy-quinazoline-4-carboxamide]",5.3,60,–
"Nc1nc(C(=O)NCc2nccc3ccccc23)c2cccc(F)c2n1 [Example 89, 2-amino-8-fluoro-N-(isoquinolin-1-ylmethyl)quinazoline-4-carboxamide]",–,13,6.6
"COc1cccc2c(C(=O)NCc3cccc(CN4CCOCC4)c3)nc(N)nc12 [Example 53, 2-amino-8-methoxy-N-[[3-(morpholinomethyl)phenyl]methyl]quinazoline-4-carboxamide]",7.1,63,–
"COc1cccc2c(C(=O)NCc3cccc(COCC(C)C)n3)nc(N)nc12 [Example 51, 2-amino-N-[[6-(isobutoxymethyl)-2-pyridyl]methyl]-8-methoxy-quinazoline-4-carboxamide]",1.9,90,–
"COc1cccc2c(C(=O)NCc3ncccn3)nc(N)nc12 [Example 38, 2-amino-8-methoxy-N-(pyrimidin-2-ylmethyl)quinazoline-4-carboxamide]",43,94,–
